Test results as given in patent US20070161691A1, “Modified-protein formation inhibitor” (TOKAI UNIVERSITY, priority 2003, published 2007).

Tests used:
[1] = Suppressive effect on the hydroxylation of phenylalanine with hydroxy radical; type: biochemical; settings: in comparison with pyridoxamine as positive control; 0.1, 0.5, 2.5 mM
Protocol: Phenylalanine (final concentration: 1 mM), test compound (final concentration: 0.1, 0.5, 2.5 mM), hydrogen peroxide (final concentration: 5 mM) and cupric sulfate (final concentration: 0.1 mM) were dissolved in 200 mM of phosphate buffer (pH7.4) (total volume 500 μL), followed by incubation at 37° C. for 4 hours. Then, DTPA (final concent-ration: 1 mM) and 260 unit of catalase were added thereto to interrupt the reaction. The amounts of o-tyrosine and m-tyrosine formed were determined by HPLC in the following manner: after a designed period of time, the reaction mixture was diluted to 100 folds; 20 μL of the dilution was injected onto HPLC, separation was made with C18 column (4.6×250 mm, 5 μm; Nomura Kagaku) and detection was effected using a fluorescence detector (RF-10A: Shimazu Seisakusho) under the condition of an excitation wavelength of 275 nm and a fluorescence wavelength of 305 nm. In the mobile phase, the flow rate was 0.6mL/min and the concentration of buffer B was varied from 6.5% to 10% in 25 minutes (buffer A: 0.10% trifluoroacetic acid; buffer B: 80% acetonitrile containing 0.08% trifluoroacetic acid).

[2] = Suppressing effect on the nitration of tyrosine with peroxynitrite; type: biochemical; settings: in comparison with pyridoxamine as positive control; 0.1, 0.5, 2.5 and 5 mM
Protocol: According to the method of Pannala, A.S. et al. (Free Radic. Biol. Med., 24:594-606, 1998), the examination was carried out. Namely, tyrosine (final concentration: 100 μM), the test compound (final concentration: 0.1, 0.5, 2.5 and 5 mM) and peroxynitrite (Dojin Kagaku) (final concentration: 500 μM) were dissolved in 200 mM of phosphate buffer (pH7.4) (liquid volume 500 μL) and incubated at 37° C. for 15 minutes. After incubation, the nitrotyrosine formation was determined with HPLC in the following manner: after a predifined time, the reaction mixture (20 μL) was injected onto HPLC, separation was made with C18 column (4.6×250 mm, 5 μm: Waters) and the detection was effected using a ultraviolet detector (RF-10A: Shimazu Seisakusho) at a wavelength of 280 nm. In the mobile phase, the flow rate was 0.6 mL/min and the concentration of buffer B was varied from 5.0% to 30% in 30 minutes (buffer A: 0.10% trifluoroacetic acid; buffer B: 80% acetonitrile containing 0.08% trifluoroacetic acid). 4-Hydroxy-3-nitrobenzoic acid (100 μM) was used as the internal standard.

[3] = test system: glomerulonephritis model with mesangial proliferative nephritis; experiment: Effect against glomerulonephritis (anti Thy-1 antibody model); type: in vivo, rat; settings: 1 mg/kg once a day, 5 days
Protocol: 1.2 mg/kg of OX-7, anti Thy-1 antibody, was administered to wistar rat (male, body weight 150 g, 6 weeks old) in tail vein to prepare typical glomerulonephritis model with mesangial proliferative nephritis. After the administration of anti Thy-1 antibody, test compound (4-(5-phenyltetrazol-1-ylmethyl)-morpholine (compound 1), 1 mg/kg body weight, once a day) was suspended in 0.5% carboxymethylcellulose, was coercively administered for 5 days continuously, on sixth day sampled, kidney was obtained, and analysed pathologically (count the number of glomerular cells). In particular, cells were stained by PAS according to conventional method, the stained image was captured by 3CCD camera (Olympus), and then analyzed using softwares, Image Graver PCI (FUJI shashin film) and Mac Aspect (Mitani kabushiki kaisha). Also, biochemical analysis of blood and urine was carried out (contract clinical analysis organization: SR L).

[4] = test system: ischemia-reperfusion acute renal failure model; experiment: Renal protective effect on ischemia-reperfusion acute renal failure model rat; type: in vivo; settings: 1 mg/kg once a day, 2 days
Protocol: This condition model is typical acute renal failure model. To prepare the model, operated on wistar rat (male, body weight 150 g, 6 weeks aged) to remove right kidney, and on the following day, renal artery of remaining left kidney was applied a ligature with clip under general anesthesia. […] After preparing the ischemia-reperfusion model, test compound (4-(5-phenyltetrazol-1-yl methyl)-morpholine (compound 1), 1 mg/kg body weight, once a day) was suspended in 0.5% carboxymethylcellulose. The suspension was coercively administered 2 days continuously, on third day kidney was obtained, and analysed pathologically (renal tubular stromal disorder score). In particular, the kidney was stained by PAS according to conventional method and the renal tubular stromal disorder was estimated for the presence or absence of renal tubular necrosis, renal tubular hypertrophy, renal tubular atrophia, renal tubular basal lamina thickening and cast in the sustained image of kidney. As well as biochemical analysis of blood was carried out (contract clinical analysis organization: SRL).

In the case of c1ccc(-c2nnnn2CN2CCOCC2)cc1 [Compound 1, 4-(5-phenyltetrazol-1-ylmethyl)-morpholine], the “hydroxylation of phenylalanine with hydroxy radical, suppression” value [1] is reported as “suppressed remarkably”, the “nitrotyrosine formation, suppression” value [2] is reported as “suppressed remarkably” and the BUN [3] is reported as “BUN reducing effect”. For the same compound, the urinary protein [3] was “urinary protein reducing effect” and the BUN [4] was “BUN reducing effect”.
